From ChEMBL document CHEMBL1201862, “PubChem BioAssay data set” (2004)
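Results reflect a 48-hour exposure of cells in 96-well plates to compound at five concentrations. At the GI50, growth is halved.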 Calls of active or inactive are those of the source. Cut-off read from the data, not from the text of the source: active = GI50 up to about 1.1 µM and inactive = higher.

What was measured:
Assay in all cases: NCI-60 cell line screen, 48 h
NCI-H23 = system: NCI-H23
786-0 = system: 786-0
UO-31 = system: UO-31
HCC 2998 = system: HCC 2998
OVCAR-3 = system: OVCAR-3
SK-MEL-5 = system: SK-MEL-5
SNB-75 = system: SNB-75
K562 = system: K562
TK-10 = system: TK-10
NCI-H226 = system: NCI-H226
MOLT-4 = system: MOLT-4
KM12 = system: KM12
HL-60 = system: HL-60
A549 = system: A549
IGROV-1 = system: IGROV-1
SN12C = system: SN12C
RPMI-8226 = system: RPMI-8226

Measured: GI50

Clc1ccc(OCc2nnc3n2N=C(c2ccccc2)CS3)c(Cl)c1
inactive: NCI-H23 5.66 µM | 786-0 9.48 µM | UO-31 2.14 µM | HCC 2998 > 100 µM | OVCAR-3 > 10 µM | SK-MEL-5 8.28 µM | SNB-75 3.02 µM | K562 4.25 µM | TK-10 7.98 µM | NCI-H226 9.84 µM | MOLT-4 3.23 µM | KM12 > 100 µM | HL-60 3.7 µM | A549 6.5 µM | IGROV-1 6.4 µM

COC(=O)C(Br)C1CCc2ccccc21 (stereo not given)
inactive: NCI-H23 > 100 µM | 786-0 > 100 µM | UO-31 > 100 µM | HCC 2998 > 100 µM | OVCAR-3 63.1 µM | SK-MEL-5 > 100 µM | K562 52.7 µM | TK-10 > 100 µM | NCI-H226 46.3 µM | MOLT-4 68.7 µM | SN12C > 100 µM | RPMI-8226 71.9 µM | HL-60 26.5 µM | A549 > 100 µM | IGROV-1 > 100 µM

N#CCC(=O)Nc1cccc(C(F)(F)F)c1
inactive: NCI-H23 > 100 µM | 786-0 > 100 µM | UO-31 > 100 µM | HCC 2998 > 100 µM | OVCAR-3 84.3 µM | SK-MEL-5 > 100 µM | SNB-75 > 100 µM | K562 > 10 µM | TK-10 > 100 µM | NCI-H226 > 100 µM | MOLT-4 > 100 µM | SN12C > 100 µM | KM12 > 100 µM | HL-60 > 100 µM | A549 > 100 µM | IGROV-1 > 100 µM

CC(C)C1=CC(=O)C(C)(C2=NC(C)(C)CO2)c2ccccc21 (stereo not given)
inactive: NCI-H23 > 100 µM | 786-0 > 100 µM | UO-31 61.2 µM | OVCAR-3 > 100 µM | SK-MEL-5 > 100 µM | SNB-75 96.4 µM | K562 50.4 µM | TK-10 > 100 µM | NCI-H226 51.5 µM | MOLT-4 67.3 µM | SN12C > 100 µM | RPMI-8226 78.2 µM | KM12 > 100 µM | HL-60 > 100 µM | A549 > 100 µM | IGROV-1 > 100 µM

CCCCCCCCCCCCCC(=O)NCO
inactive: NCI-H23 > 100 µM | 786-0 > 100 µM | UO-31 99.3 µM | HCC 2998 > 100 µM | OVCAR-3 > 100 µM | SK-MEL-5 > 100 µM | SNB-75 > 100 µM | TK-10 > 100 µM | NCI-H226 > 100 µM | SN12C > 100 µM | RPMI-8226 > 100 µM | KM12 > 100 µM | HL-60 > 100 µM | A549 > 100 µM | IGROV-1 > 100 µM

CCCP1(=O)C=C(C)C(=C(Cl)Cl)C(C)=C1 (stereo not given)
inactive: NCI-H23 34.7 µM | 786-0 44.5 µM | UO-31 46.7 µM | HCC 2998 32.3 µM | OVCAR-3 84.9 µM | SK-MEL-5 24.1 µM | K562 30.8 µM | TK-10 > 100 µM | MOLT-4 31 µM | SN12C 24.6 µM | KM12 24.2 µM | HL-60 21.6 µM | A549 33.7 µM | IGROV-1 70 µM

CC/C=C\C/C=C\C1CC(=O)NCCCNCCCCN1 (stereo not given)
inactive: NCI-H23 > 100 µM | 786-0 > 100 µM | UO-31 > 100 µM | HCC 2998 > 100 µM | SK-MEL-5 > 100 µM | SNB-75 > 100 µM | TK-10 > 100 µM | NCI-H226 59.7 µM | SN12C > 100 µM | KM12 > 100 µM | HL-60 > 100 µM | A549 > 100 µM

Cc1nnc2c3nnc(C)n3c3ccccc3n12
inactive: NCI-H23 > 100 µM | 786-0 > 100 µM | UO-31 > 100 µM | HCC 2998 > 100 µM | OVCAR-3 > 100 µM | SK-MEL-5 > 100 µM | SNB-75 > 100 µM | K562 > 100 µM | TK-10 > 100 µM | NCI-H226 > 100 µM | MOLT-4 > 100 µM | SN12C > 100 µM | RPMI-8226 > 100 µM | KM12 > 100 µM | A549 > 100 µM | IGROV-1 > 100 µM

C=CCc1ccc(Oc2cc(CC=C)c3c(c2O)O[C@@H](CO)[C@H]3c2ccc(O)c(-c3cc(CC=C)ccc3O)c2)cc1
inactive: NCI-H23 47.3 µM | 786-0 54 µM | UO-31 77.1 µM | HCC 2998 45.9 µM | OVCAR-3 33 µM | SK-MEL-5 87.3 µM | SNB-75 > 100 µM | K562 37.6 µM | TK-10 > 100 µM | NCI-H226 67.1 µM | SN12C 41.9 µM | RPMI-8226 32.5 µM | KM12 35.3 µM | HL-60 23.8 µM | A549 > 100 µM | IGROV-1 32.7 µM

CCCCCCCCCCCCCC(=O)OCC(C[As](=O)(O)O)OC(=O)CCCCCCCCCCCCC (stereo not given)
inactive: NCI-H23 > 100 µM | 786-0 > 100 µM | UO-31 > 100 µM | HCC 2998 > 100 µM | OVCAR-3 > 100 µM | SK-MEL-5 > 100 µM | SNB-75 > 100 µM | K562 > 100 µM | TK-10 > 100 µM | NCI-H226 > 100 µM | MOLT-4 > 100 µM | SN12C 92 µM | RPMI-8226 > 100 µM | KM12 > 100 µM | A549 > 100 µM | IGROV-1 > 100 µM

CC(=O)NNc1nc(C)c(C(=O)/C=C/c2ccc(/C=C/C(=O)c3sc(NNC(C)=O)nc3C)cc2)s1
inactive: NCI-H23 > 100 µM | 786-0 > 100 µM | UO-31 > 100 µM | HCC 2998 > 100 µM | OVCAR-3 > 100 µM | K562 > 100 µM | TK-10 > 100 µM | NCI-H226 > 100 µM | MOLT-4 > 100 µM | SN12C > 100 µM | KM12 > 100 µM | HL-60 > 100 µM | A549 > 100 µM | IGROV-1 > 100 µM

O=C1/C(=C/c2ccc(Cl)cc2)COc2ccc(Br)cc21
inactive: NCI-H23 > 100 µM | 786-0 > 100 µM | UO-31 80.4 µM | HCC 2998 > 100 µM | OVCAR-3 > 100 µM | SK-MEL-5 > 100 µM | SNB-75 > 100 µM | K562 > 100 µM | TK-10 > 100 µM | MOLT-4 > 100 µM | RPMI-8226 6.22 µM | KM12 > 100 µM | HL-60 > 100 µM | A549 > 100 µM | IGROV-1 > 100 µM

Cc1ccc(NC(=O)CC/C(CC(=O)c2ccc(F)cc2)=N\NC(=O)C(=O)NN)cc1C
inactive: NCI-H23 > 100 µM | 786-0 > 100 µM | UO-31 > 100 µM | HCC 2998 > 100 µM | OVCAR-3 > 100 µM | SK-MEL-5 > 100 µM | SNB-75 > 100 µM | K562 > 100 µM | TK-10 > 100 µM | NCI-H226 > 100 µM | SN12C > 100 µM | KM12 > 100 µM | HL-60 41.5 µM | A549 > 100 µM | IGROV-1 > 100 µM
